Values after ≈ are worked out from the molar mass of the structure shown.
Legend:
HBV [1] = assay: Anti-HBV activity in vitro in HepG2.2.15 cells (extracellular HBV DNA by qPCR); format: cell-based, Hepatitis B virus; details: Hepatitis B virus; HepG2.2.15 cells; in-house data; read-out: EC50
How it was run: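 Supernatant HBV DNA was measured by qPCR after viral DNA extraction. Samples came from 5-day cultures of HepG2.2.15 cells, an HBV-genome-transfected HepG2 line, exposed to half-log compound dilutions in medium containing 0.5% DMSO.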

[2] = Cytotoxicity (CC50) in HepDE19 cells, CCK-8 cell viability; format: cell-based; details: human, HepDE19 cells; read-out: CC50
Source text: HepG2.2.15 and HepDE19 are stably-transfected cell lines containing the HBV genome. Both cell lines are derived from the hepatoblastoma cell line Hep G2 (American Type Culture Collection, ATCC® HB-8065™) by the published procedures described in references: MA Selles et al. Proc. Natl. Acad. Sci. USA 1987, 84, 1005-1009 and H Guo et al. Journal of Virology 2007, 81, 12472-12484, respectively. Both cell lines were maintained in Dulbecco's modified Eagle's medium (DMEM)-F12 medium supplemented with 10% fetal bovine serum, 100 U/mL penicillin, 100 μg/mL streptomycin, and 0.5 mg/mL of G418.
Five days after treatment, cell viability was measured by addition of 20 μL of CCK-8 reagent. Two hours after incubation at 37° C., the absorbance at wavelengths of 450 nm and 630 nm (OD450 and OD630) was recorded by a plate reader.

HBV [3] = assay: Selectivity index (CC50 value/EC50 value); format: cell-based, Hepatitis B virus
Source text: Based on FDA guidance, in order to support clinical testing in humans, the assessment of acceptable risk-benefit has to be achieved by providing clear evidence of in vitro antiviral activity (EC50) and cytotoxicity (CC50). It is important to establish that an investigational product has antiviral activity at concentrations that can be achieved in vivo without inducing toxic effects to cells. Furthermore, in a cell culture model, apparent antiviral activity of an investigational product can be the result of host cell death after exposure to the product. The relative effectiveness of the compound in inhibiting viral replication compared to inducing cell death is defined as the selectivity index (CC50 value/EC50 value). It is desirable to have a high selectivity index giving maximum antiviral activity with minimal cell toxicity.
The relative effectiveness of the compound in inhibiting viral replication compared to inducing cell death is defined as the selectivity index (CC50 value/EC50 value). It is desirable to have a high selectivity index giving maximum antiviral activity with minimal cell toxicity.

[4] = Metabolic stability study in human microsome; format: in vitro ADME
How it was run: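 Depletion of 1 μM compound followed by LC-MS/MS over 0–30 min (0, 3, 6, 9, 15, 30 min) after methanol quench. Incubations at 37 °C, pH 7.4 phosphate buffer, 0.5 mg/mL microsomal protein, with NADPH (1 mM) or a regenerating system as cofactor; controls lacked cofactor.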

[5] = Lyophilisation solubility assay (Lysa); format: physicochemical; details: phosphate buffer, pH 6.5, aqueous buffer, thermodynamic from solid
How it was run: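 Solubility in μg/mL is read by UV or HPLC-UV on filtrate, neat and diluted 1/10. Before filtration, the residue from evaporated 10 mM DMSO stock was taken up in pH 6.5 0.05 M phosphate buffer, then stirred 1 h, shaken 2 h and stood overnight, in duplicate.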

Structure (SMILES): CCOC(=O)C1=C(CN2CCOC[C@H]2C(=O)O)NC(c2nccn2C)=N[C@H]1c1ccc(F)cc1Cl [Example 35, (S)-4-[(R)-6-(2-Chloro-4-fluoro-phenyl)-5-ethoxycarbonyl-2-(1-methyl-1H-imidazol-2-yl)-3,6-dihydro-pyrimidin-4-ylmethyl]-morpholine-3-carboxylic acid]
- EC50 (HBV [1]): 7.7 nM
- CC50 at 5 days [2]: > 100000 nM
- Selectivity index (CC50/EC50) (HBV [3]): 12987
- Human Hepatic Clearance [4]: 8.86 mL/min/kg
- solubility thermodynamic [5]: > 599 µg/mL

Structure (SMILES): CCOC(=O)C1=C(CN2CC(F)(F)C[C@H]2C(=O)O)NC(c2nccn2C)=N[C@H]1c1ccc(F)cc1Cl [Example 36, (R)-6-((S)-2-Carboxy-4,4-difluoro-pyrrolidin-1-ylmethyl)-4-(2-chloro-4-fluoro-phenyl)-2-(1-methyl-1H-imidazol-2-yl)-1,4-dihydro-pyrimidine-5-carboxylic acid ethyl ester]
- EC50 (HBV [1]): 18 nM
- CC50 at 5 days [2]: 23000 nM
- Selectivity index (CC50/EC50) (HBV [3]): 1251
- Human Hepatic Clearance [4]: 6.22 mL/min/kg
- solubility thermodynamic [5]: > 637 µg/mL

Structure (SMILES): CCOC(=O)C1=C(CN2CC(F)(F)C[C@H]2C(=O)O)NC(c2nccs2)=N[C@H]1c1ccc(Cl)cc1Cl [Example 38, (R)-6-((S)-2-Carboxy-4,4-difluoro-pyrrolidin-1-ylmethyl)-4-(2,4-dichloro-phenyl)-2-thiazol-2-yl-1,4-dihydro-pyrimidine-5-carboxylic acid ethyl ester]
- EC50 (HBV [1]): 3.3 nM
- CC50 at 5 days [2]: 21000 nM
- Selectivity index (CC50/EC50) (HBV [3]): 6315
- Human Hepatic Clearance [4]: 9.3 mL/min/kg
- solubility thermodynamic [5]: 291 µg/mL (≈ 534 µM)

Structure (SMILES): CCOC(=O)C1=C(CN2CC(F)(F)C[C@H]2C(=O)O)NC(c2nccs2)=N[C@H]1c1ccc(F)c(F)c1 [Example 41, (S)-6-((S)-2-Carboxy-4,4-difluoro-pyrrolidin-1-ylmethyl)-4-(3,4-difluoro-phenyl)-2-thiazol-2-yl-1,4-dihydro-pyrimidine-5-carboxylic acid ethyl ester]
- EC50 (HBV [1]): 17 nM
- CC50 at 5 days [2]: 40000 nM
- Selectivity index (CC50/EC50) (HBV [3]): 2372
- Human Hepatic Clearance [4]: 6.83 mL/min/kg
- solubility thermodynamic [5]: > 630 µg/mL

Structure (SMILES): CCOC(=O)C1=C(CN2CCOC[C@H]2C(=O)O)NC(c2nccs2)=N[C@H]1c1ccc(F)c(F)c1 [Example 42, (S)-4-[(S)-6-(3,4-Difluoro-phenyl)-5-ethoxycarbonyl-2-thiazol-2-yl-3,6-dihydro-pyrimidin-4-ylmethyl]-morpholine-3-carboxylic acid]
- EC50 (HBV [1]): 10 nM
- CC50 at 5 days [2]: > 100000 nM
- Selectivity index (CC50/EC50) (HBV [3]): >10000
- Human Hepatic Clearance [4]: 5.56 mL/min/kg
- solubility thermodynamic [5]: > 613 µg/mL

Structure (SMILES): CCOC(=O)C1=C(CN2CCOC[C@H]2C(=O)O)NC(c2nccs2)=N[C@H]1c1cc(F)c(F)c(F)c1 [Example 43, (S)-4-[(S)-5-Ethoxycarbonyl-2-thiazol-2-yl-6-(3,4,5-trifluoro-phenyl)-3,6-dihydro-pyrimidin-4-ylmethyl]-morpholine-3-carboxylic acid]
- EC50 (HBV [1]): 18 nM
- CC50 at 5 days [2]: > 100000 nM
- Selectivity index (CC50/EC50) (HBV [3]): >5556
- Human Hepatic Clearance [4]: 1.2 mL/min/kg
- solubility thermodynamic [5]: > 606 µg/mL

Structure (SMILES): CCOC(=O)C1=C(CN2CCOC[C@H]2C(=O)O)NC(c2nccs2)=N[C@H]1c1ccc(F)c(F)c1F [Example 44, (S)-4-[(R)-5-Ethoxycarbonyl-2-thiazol-2-yl-6-(2,3,4-trifluoro-phenyl)-3,6-dihydro-pyrimidin-4-ylmethyl]-morpholine-3-carboxylic acid]
- EC50 (HBV [1]): 4.6 nM
- CC50 at 5 days [2]: 49000 nM
- Selectivity index (CC50/EC50) (HBV [3]): 10748
- Human Hepatic Clearance [4]: 4.46 mL/min/kg
- solubility thermodynamic [5]: > 626 µg/mL

Structure (SMILES): CCOC(=O)C1=C(CN2CCOC[C@H]2C(=O)O)NC(c2nccs2)=N[C@H]1c1ccc(Cl)c(Cl)c1 [Example 46, (S)-4-[(S)-6-(3,4-Dichloro-phenyl)-5-ethoxycarbonyl-2-thiazol-2-yl-3,6-dihydro-pyrimidin-4-ylmethyl]-morpholine-3-carboxylic acid]
- EC50 (HBV [1]): 16 nM
- CC50 at 5 days [2]: 36000 nM
- Selectivity index (CC50/EC50) (HBV [3]): 2212
- Human Hepatic Clearance [4]: 0 mL/min/kg
- solubility thermodynamic [5]: > 655 µg/mL

Structure (SMILES): CCOC(=O)C1=C(CN2CCOC[C@H]2C(=O)O)NC(c2nccs2)=N[C@H]1c1ccc(Cl)cc1F [Example 49, (S)-4-[(R)-6-(4-Chloro-2-fluoro-phenyl)-5-ethoxycarbonyl-2-thiazol-2-yl-3,6-dihydro-pyrimidin-4-ylmethyl]-morpholine-3-carboxylic acid]
- EC50 (HBV [1]): 4.7 nM
- CC50 at 5 days [2]: 42000 nM
- Selectivity index (CC50/EC50) (HBV [3]): 8936
- Human Hepatic Clearance [4]: 0 mL/min/kg
- solubility thermodynamic [5]: > 679 µg/mL

Structure (SMILES): CCOC(=O)C1=C(CN2CC(F)(F)C[C@H]2C(=O)O)NC(c2nccs2)=N[C@H]1c1cccc(F)c1F [Example 50, (R)-6-((S)-2-Carboxy-4,4-difluoro-pyrrolidin-1-ylmethyl)-4-(2,3-difluoro-phenyl)-2-thiazol-2-yl-1,4-dihydro-pyrimidine-5-carboxylic acid ethyl ester]
- EC50 (HBV [1]): 14 nM
- CC50 at 5 days [2]: 26000 nM
- Selectivity index (CC50/EC50) (HBV [3]): 1905
- Human Hepatic Clearance [4]: 0 mL/min/kg
- solubility thermodynamic [5]: > 580 µg/mL

Structure (SMILES): CCOC(=O)C1=C(CN2CCOC[C@H]2C(=O)O)NC(c2nccs2)=N[C@H]1c1ccc(Br)c(F)c1 [Example 52, (S)-4-[(S)-6-(4-Bromo-3-fluoro-phenyl)-5-ethoxycarbonyl-2-thiazol-2-yl-3,6-dihydro-pyrimidin-4-ylmethyl]-morpholine-3-carboxylic acid]
- EC50 (HBV [1]): 3 nM
- CC50 at 5 days [2]: 14000 nM
- Selectivity index (CC50/EC50) (HBV [3]): 4693
- Human Hepatic Clearance [4]: 4.03 mL/min/kg
- solubility thermodynamic [5]: > 665 µg/mL

Structure (SMILES): CCOC(=O)C1=C(CN2CCOC[C@H]2C(=O)O)NC(c2nccs2)=N[C@H]1c1cccc(F)c1 [Example 53, (S)-4-[(S)-5-Ethoxycarbonyl-6-(3-fluoro-phenyl)-2-thiazol-2-yl-3,6-dihydro-pyrimidin-4-ylmethyl]-morpholine-3-carboxylic acid]
- EC50 (HBV [1]): 14 nM
- CC50 at 5 days [2]: 69000 nM
- Selectivity index (CC50/EC50) (HBV [3]): 4769
- Human Hepatic Clearance [4]: 0 mL/min/kg
- solubility thermodynamic [5]: > 621 µg/mL

Structure (SMILES): CCOC(=O)C1=C(CN2CCOC[C@H]2C(=O)O)NC(c2nccn2C)=N[C@H]1c1ccc(F)c(F)c1 [Example 57, (S)-4-[(S)-6-(3,4-Difluoro-phenyl)-5-ethoxycarbonyl-2-(1-methyl-1H-imidazol-2-yl)-3,6-dihydro-pyrimidin-4-ylmethyl]-morpholine-3-carboxylic acid]
- EC50 (HBV [1]): 15 nM
- CC50 at 5 days [2]: 35000 nM
- Selectivity index (CC50/EC50) (HBV [3]): 2384
- Human Hepatic Clearance [4]: 0 mL/min/kg
- solubility thermodynamic [5]: > 613 µg/mL

Structure (SMILES): CCOC(=O)C1=C(CN2CC(F)(F)C[C@H]2C(=O)O)NC(c2nccs2)=N[C@H]1c1ccc(F)cc1F [Example 59, (R)-6-((S)-2-Carboxy-4,4-difluoro-pyrrolidin-1-ylmethyl)-4-(2,4-difluoro-phenyl)-2-thiazol-2-yl-1,4-dihydro-pyrimidine-5-carboxylic acid ethyl ester]
- EC50 (HBV [1]): 13 nM
- CC50 at 5 days [2]: 52000 nM
- Selectivity index (CC50/EC50) (HBV [3]): 3935
- Human Hepatic Clearance [4]: 3.5 mL/min/kg
- solubility thermodynamic [5]: > 630 µg/mL

Source: patent US9447086B2, “6-amino acid heteroaryldihydropyrimidines for the treatment and prophylaxis of hepatitis B virus infection” (priority 2012, dated 2016)
